The record followed here is BindingDB's records for doi:10.1021/acs.jmedchem.1c00726 (University of Florida, 2021).

The Ki is the dissociation constant of the complex between target and ligand, obtained from inhibition or displacement.

Each structure is given as a SMILES string.

For the assay, the target named is 5-hydroxytryptamine receptor 2B (Homo sapiens, UniProt P41595). The assay is described as follows: Displacement of [3H]LSD from human recombinant 5-HT2B receptor expressed in CHO cells by radioligand completion assay relative to control. (In general: Displacement assays read how much labelled ligand stays bound in the presence of the test substance.)
5-hydroxytryptamine receptor 2B, sequence (P41595 whole entry): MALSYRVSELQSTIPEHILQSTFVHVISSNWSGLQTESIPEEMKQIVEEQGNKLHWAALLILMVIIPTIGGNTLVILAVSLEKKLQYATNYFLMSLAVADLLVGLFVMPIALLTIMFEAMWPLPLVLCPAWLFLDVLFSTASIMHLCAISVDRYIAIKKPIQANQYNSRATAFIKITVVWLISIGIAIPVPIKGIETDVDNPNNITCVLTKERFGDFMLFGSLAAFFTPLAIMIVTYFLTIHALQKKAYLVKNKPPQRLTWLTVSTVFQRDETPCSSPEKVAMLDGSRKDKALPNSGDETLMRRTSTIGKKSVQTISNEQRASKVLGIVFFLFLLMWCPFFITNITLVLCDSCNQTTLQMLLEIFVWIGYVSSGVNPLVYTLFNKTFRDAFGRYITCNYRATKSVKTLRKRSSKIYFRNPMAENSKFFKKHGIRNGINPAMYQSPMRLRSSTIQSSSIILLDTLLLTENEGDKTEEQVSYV

Regarding `COc1cc(C[C@@H](C)N)c(OC)cc1I` [(R)-2-(4-iodo-2,5-dimethoxyphenyl)-1-methylethylamine], the Ki came out at 2.2 nM.
